Data on three molecules can be found in patent US20050203188A1, “Fungicidal mixtures based on benzamideoxime derivatives, benzophenones and on an azole” (priority 2002, published 2005).

The structures appear in SMILES notation.

Assay [1] concerns Puccinia recondita. In words: Curative activity against brown rust of wheat (potted wheat seedlings cv. Kanzler). In kind it is in vivo. As to conditions: single active, 7 days. How it is done:
(§1) The active compounds are prepared separately or together as a 10% strength emulsion in a mixture of 63% by weight of cyclohexanone and 27% by weight of emulsifier and diluted with water to the desired concentration.
(§2) Evaluation is carried out by determining the infected leaf areas in percent. These percentages are converted into efficacies. The efficacy (E) is calculated as follows using Abbot's formula: E=(1−α)*100/β • α corresponds to the fungal infection of the treated plants in % and • β corresponds to the fungal infection of the untreated (control) plants in %
(§3) An efficacy of 0 means that the infection level of the treated plants corresponds to that of the untreated control plants; an efficacy of 100 means that the treated plants were not infected.
(§4) The expected efficacies of the active compound mixtures were determined using Colby's formula [S. R. Colby, Weeds 15, 20-22 (1967)] and compared with the observed efficacies. Colby's formula: E=x+y−x−y/100 • E expected efficacy, expressed in % of the untreated control, when using the mixture of the active compounds A and B at the concentrations a and b • x efficacy, expressed in % of the untreated control, when using active compound A at a concentration of a • y efficacy, expressed in % of.the untreated control, when using active compound B at a concentration of b
Leaves of potted wheat seedlings of the cultivar “Kanzler” were dusted with spores of brown rust (Puccinia recondita). The pots were then placed in a chamber with high atmospheric humidity (90 to 95%), at 20 to 22° C., for 24 hours. During this period of time, the spores germinated and the germinal tubes penetrated into the leaf tissue. The next day, the infected plants were sprayed to runoff point with an aqueous suspension having the concentration of active compound stated below. The suspension or emulsion had been prepared from a stock solution comprising 10% of active compound in a mixture consisting of 85% of cyclohexanone and 5% of emulsifier. After the spray coating had dried on, the test plants were cultivated in a greenhouse at temperatures between 20 and 22° C. and at 65 to 70% relative atmospheric humidity for 7 days. The extent of the rust fungus development on the leaves was then determined.
The visually determined percentages of infected leaf areas were converted into efficacies as % of the untreated control. An efficacy of 0 means that the infection level of the treated plants corresponds to that of the untreated control; an efficacy of 100 means 0% infection. The expected efficacies of the combinations of active compounds were determined using Colby's formula (Colby, S. R. “Calculating synergistic and antagonistic responses of herbicide Combinations”, Weeds, 15, pp. 20-22, 1967) and compared with the observed efficacies.

In assay [2] the test system is Erysiphe [syn. Blumeria] graminis forma specialis tritici. The experiment in a line: Activity against mildew of wheat (protective spray, potted wheat seedlings cv. Kanzler). In kind it is in vivo. As to conditions: single active, 7 days after inoculation. As for the experimental part:
as §1, §2, §3, §4
Leaves of potted wheat seedlings of the cultivar “Kanzler” were sprayed to runoff point with an aqueous suspension having the concentration of active compound stated below. The suspension or emulsion had been prepared from a stock solution comprising 10% of active compound in a mixture consisting of 85% of cyclohexanone and 5% of emulsifier. 24 hours after the spray coating had dried on, the seedlings were dusted with spores of mildew of wheat (Erysiphe [syn. Blumeria] graminis forma specialis tritici). The test plants were then placed in a greenhouse at temperatures between 20 and 24° C. and 60 to 90% relative atmospheric humidity. After 7 days, the extent of the mildew development was determined visually in % infection of the total leaf area.
The visually determined percentages of infected leaf area were converted into efficacies as % of the untreated control. An efficacy of 0 means the infection level of the treated plants corresponds to that of the untreated control; an efficacy of 100 means 0% infection. The expected efficacies of the combinations of active compounds were determined using Colby's formula (Colby, S. R. “Calculating synergistic and antagonistic responses of herbicide Combinations”, Weeds, 15, pp., 20-22, 1967) and compared with the observed efficacies.

Consider `COc1cc(C)c(C(=O)c2c(OC)ccc(Br)c2C)c(OC)c1OC` [Compound II = metrafenone, metrafenone], for which the “Efficacy in % of the untreated control” value is recorded as 0% in assay [1] (0.015 ppm in spray liquor); 0% in assay [1] (0.06 ppm in spray liquor); 0% in assay [1] (0.25 ppm in spray liquor); 0% in assay [1] (1 ppm in spray liquor); 33% in assay [2] (0.015 ppm in spray liquor); 44% in assay [2] (0.06 ppm in spray liquor). Also, the “Efficacy in % of the untreated control” value in assay [2] (0.25 ppm in spray liquor) was determined as 56%; in assay [2] (1 ppm in spray liquor), 72%.

`Fc1ccc(C2(Cn3cncn3)OC2c2ccccc2Cl)cc1` (stereo not drawn) [Compound III = epoxiconazole, epoxiconazole]: the “Efficacy in % of the untreated control” value in assay [1] (0.015 ppm in spray liquor) is listed as 0%; in assay [1] (0.06 ppm in spray liquor), 67%; in assay [1] (0.25 ppm in spray liquor), 89%; in assay [1] (1 ppm in spray liquor), 94%; in assay [2] (0.015 ppm in spray liquor) it was 0%; in assay [2] (0.06 ppm in spray liquor) it was 33%. Moreover, the entries for the “Efficacy in % of the untreated control” value in assay [2] (0.25 ppm in spray liquor) and in assay [2] (1 ppm in spray liquor) were 44% and 56%, respectively.

For `COC(=O)N(OC)c1ccccc1COc1ccn(-c2ccc(Cl)cc2)n1` [Compound IV = pyraclostrobin, pyraclostrobin], the “Efficacy in % of the untreated control” value in assay [1] (0.015 ppm in spray liquor) is 22%; in assay [1] (0.06 ppm in spray liquor), 33%; in assay [1] (0.25 ppm in spray liquor), 33%; in assay [1] (1 ppm in spray liquor), 78%; in assay [2] (0.015 ppm in spray liquor) it was 0%; in assay [2] (0.06 ppm in spray liquor) it was 0%. Besides, the “Efficacy in % of the untreated control” value was determined as 0% in assay [2] (0.25 ppm in spray liquor) and 33% in assay [2] (1 ppm in spray liquor).
